From patent US7314958B2, “Phenylbenzamides” (Bayer CropScience AG, priority 2002, dated 2008) come the findings set out here.

The nature of series [1]: logP determination by HPLC, reversed-phase column (C 18), acidic range. It counts as physicochemical. As to conditions: pH 2.3, 0.1% aqueous phosphoric acid/acetonitrile, 43° C. How it is done: The logP values given in the Preparation Examples were determined in accordance with EEC Directive 79/831 Annex V.A8 by HPLC (High Performance Liquid Chromatography) using a reversed-phase column (C 18). Temperature: 43° C. Mobile phases for the determination in the acidic range: 0.1% aqueous phosphoric acid, acetonitrile; linear gradient from 10% acetonitrile to 90% acetonitrile. Calibration was carried out using unbranched alkan-2-ones (having 3 to 16 carbon atoms) with known logP values (determination of the logP values by the retention times using linear interpolation between two successive […]).

For series [2], the system named is Sphaerotheca fuliginea. The series is described as follows: Sphaerotheca test (cucumber)/protective. As to conditions: Podosphaera fuliginea, 168 h; comparative experiment; application rate 500 ppm; read-out: Example A Spaerotheca test (cucumber) protective efficacy in %. In kind it is in vivo. How it is done:
Sphaerotheca Test (Cucumber)/Protective
• Solvents: 24.5 parts by weight of acetone 24.5 parts by weight of dimethylacetamide • Emulsifier: 1 part by weight of alkylaryl polyglycol ether
(§1) To produce a suitable preparation of active compound, 1 part by weight of active compound is mixed with the stated amounts of solvent and emulsifier, and the concentrate is diluted with water to the desired concentration.
To test for protective activity, young plants are sprayed with the preparation of active compound at the stated application rate. After the spray coating has dried on, the plants are inoculated with an aqueous spore suspension of Sphaerotheca fuliginea. The plants are then placed in a greenhouse at about 23° C. and a relative atmospheric humidity of about 70%.
Evaluation is carried out 7 days after the inoculation. 0% means an efficacy which corresponds to that of the control, whereas an efficacy of 100% means that no infection is observed.
The compounds were tested in comparative experiments according to use examples A [Spaerotheca test (cucumber)/protective], D [Alternaria test (tomato)/protective] and E [Erysiphe test (barley)/protective].
In each case, the application rate was 500 ppm.

A further series has as its system Alternaria solani. The experiment in a line: Alternaria test (tomato)/protective. It counts as in vivo. The note with it: 168 h, comparative experiment, application rate 500 ppm, read-out: Example D Alternaria test (tomato) protective efficacy in %. As to the method: Alternaria Test (Tomato)/Protective • Solvent: 49 parts by weight of N,N-dimethylformamide • Emulsifier: 1 part by weight of alkylaryl polyglycol ether To produce a suitable preparation of active compound, 1 part by weight of active compound is mixed with the stated amounts of solvent and emulsifier, and the concentrate is diluted with water to the desired concentration. To test for protective activity, young tomato plants are sprayed with the preparation of active compound at the stated application rate. 1 day after the treatment, the plants are inoculated with an aqueous spore suspension of Alternaria solani and then remain at 100% relative atmospheric humidity for 24 hours. The plants are then kept at about 96% relative atmospheric humidity and a temperature of 20° C. Evaluation is carried out 7 days after the inoculation. 0% means an efficacy which corresponds to that of the control, whereas an efficacy of 100% means that no infection is observed. The compounds were tested in comparative experiments according to use examples A [Spaerotheca test (cucumber)/protective], D [Alternaria test (tomato)/protective] and E [Erysiphe test (barley)/protective]. In each case, the application rate was 500 ppm.

Series [3] has as its system Erysiphe graminis f. sp. hordei. The experiment in a line: Erysiphe test (barley)/protective. In kind it is in vivo. As to conditions: Blumeria graminis, 168 h; comparative experiment; application rate 500 ppm; read-out: Example E Erysiphe test (barley) protective efficacy in %. How it is done:
Erysiphe Test (Barley)/Protective • Solvent: 49 parts by weight of N,N-dimethylformamide • Emulsifier: 1 part by weight of alkylaryl polyglycol ether To produce a suitable preparation of active compound, 1 part by weight of active compound is mixed with the stated amounts of solvent and emulsifier, and the concentrate is diluted with water to the desired concentration. To test for protective activity, young cereal plants are sprayed with the preparation of active compound at the stated application rate. 1 day after the treatment, the plants are inoculated with spores of Erysiphe graminis f. sp. hordei. The plants are then placed in a greenhouse at 70% relative atmospheric humidity and a temperature of 18° C. Evaluation is carried out 7 days after the inoculation. 0% means an efficacy which corresponds to that of the control, whereas an efficacy of 100% means that no infection is observed. The compounds were tested in comparative experiments according to use examples A [Spaerotheca test (cucumber)/protective], D [Alternaria test (tomato)/protective] and E [Erysiphe test (barley)/protective]. In each case, the application rate was 500 ppm.

For series [4], the system named is Sphaerotheca fuliginea. The series is described as follows: Sphaerotheca test (cucumber)/protective. In kind it is in vivo. The note with it: protective, application rate 100 g/ha, evaluation 7 days after inoculation.
A further series relates to Venturia inaequalis. The series is described as follows: Venturia test (apple)/protective. In kind it is in vivo. The note with it: protective, application rate 100 g/ha, evaluation 10 days after inoculation. How it is done:
Venturia Test (Apple)/Protective
• Solvents: 24.5 parts by weight of acetone 24.5 parts by weight of dimethylacetamide • Emulsifier: 1.0 part by weight of alkylaryl polyglycol ether
as §1
To test for protective activity, young plants are sprayed with the preparation of active compound at the stated application rate. After the spray coating has dried on, the plants are inoculated with an aqueous conidia suspension of the apple scab pathogen Venturia inaequalis and then remain in an incubation cabin at about 20° C. and 100% relative atmospheric humidity for 1 day.
The plants are then placed in a greenhouse at about 21° C. and a relative atmospheric humidity of about 90%.
Evaluation is carried out 10 days after the inoculation. 0% means an efficacy which corresponds to that of the control, whilst an efficacy of 100% means that no infection is observed.

The test system of a further series is Puccinia recondita. The series is described as follows: Puccinia test (wheat)/protective. In kind it is in vivo. The note with it: 240 h, protective, application rate 500 g/ha, evaluation 10 days after inoculation, read-out: Efficacy in %. How it is done: Puccinia Test (Wheat)/Protective • Solvent: 25 parts by weight of N,N-dimethylacetamide • Emulsifier: 0.6 part by weight of alkylaryl polyglycol ether To produce a suitable preparation of active compound, 1 part by weight of active compound is mixed with the stated amounts of solvent and emulsifier, and the concentrate is diluted with water to the desired concentration. To test for protective activity, young plants are inoculated with a spore suspension of Puccinia recondita in a 0.1% strength aqueous agar solution. After the spray coating has dried on, the plants are sprayed with the preparation of active compound at the stated application rate. The plants remain in an incubation cabin at 20° C. and 100% relative atmospheric humidity for 24 hours. The plants are then placed in a greenhouse at a temperature of about 20° C. and a relative atmospheric humidity of 80% to promote the development of rust pustules. Evaluation is carried out 10 days after the inoculation. 0% means an efficacy which corresponds to that of the control, whereas an efficacy of 100% means that no infection is observed.

The term chromatographic logP denotes lipophilicity estimated from chromatographic retention. The low end stands for lower lipophilicity, the high end for higher lipophilicity. In the case of `CC(C)CC(C)c1ccccc1NC(=O)c1ccccc1C(F)(F)F` (stereo not shown) [Example 2, N-[2-(1,3-dimethylbutyl)phenyl]-2-(trifluoromethyl)benzamide], the chromatographic logP in series [1] worked out at 4.09. Moreover, the pest or weed control at 500 ppm in the series on Sphaerotheca fuliginea [2] worked out at 100%; with Alternaria solani, 95%; in series [3], 90%.
For `CC(C)CC(C)c1ccccc1NC(=O)c1ccccc1I` (stereo not shown) [Example 3, N-[2-(1,3-dimethylbutyl)phenyl]-2-iodobenzamide] the same measures were 4.12, 100%, 95% and 95%.
Consider `CC(C)CC(C)c1ccccc1NC(=O)c1ccccc1Cl` (stereo not shown) [Example 4, N-[2-(1,3-dimethylbutyl)phenyl]-2-chlorobenzamide], for which the chromatographic logP in series [1] was found to be 3.98.
Compound `CC(C)CC(C)c1ccccc1NC(=O)c1ccccc1Br` (stereo not shown) [Example 5, N-[2-(1,3-dimethylbutyl)phenyl]-2-bromobenzamide] yielded a chromatographic logP in series [1] of 4.01. The pest or weed control at 500 ppm was found to be 95% in the series with Sphaerotheca fuliginea [2], 90% with Alternaria solani and 30% in series [3].
Compound `CC(CC(C)(C)C)c1ccccc1NC(=O)c1ccccc1C(F)(F)F` (stereo not shown) [Example 6, 2-(trifluoromethyl)-N-[2-(1,3,3-trimethylbutyl)phenyl]benzamide] displayed a chromatographic logP in series [1] of 4.36.
The same measure, in the same setting: then `CC(CC(C)(C)C)c1ccccc1NC(=O)c1ccccc1Cl` (stereo not shown) [Example 7, 2-chloro-N-[2-(1,3,3-trimethylbutyl)phenyl]benzamide], with 4.25; and `CC(CC(C)(C)C)c1ccccc1NC(=O)c1ccccc1Br` (stereo not shown) [Example 8, 2-bromo-N-[2-(1,3,3-trimethylbutyl)phenyl]benzamide], with 4.29.
For `CC(CC(C)(C)C)c1ccccc1NC(=O)c1ccccc1I` (stereo not shown) [Example 9, 2-iodo-N-[2-(1,3,3-trimethylbutyl)phenyl]benzamide], the chromatographic logP in series [1] is 4.4.
Same read-out and setting: then `CCC(C)(C)CC(C)c1ccccc1NC(=O)c1ccccc1I` (stereo not shown) [Example 10, (2-iodophenyl)-N-[2-(1,3,3-trimethylpentyl)phenyl]carboxamide], with 4.71; and `CCC(C)(C)CC(C)c1ccccc1NC(=O)c1ccccc1C(F)(F)F` (stereo not shown) [Example 11, [2-(trifluoromethyl)phenyl]-N-[2-(1,3,3-trimethylpentyl)phenyl]carboxamide], with 4.68; and `CCC(C)(C)CC(C)c1ccccc1NC(=O)c1ccccc1Cl` (stereo not shown) [Example 12, (2-chlorophenyl)-N-[2-(1,3,3-trimethylpentyl)phenyl]carboxamide], with 4.6.
Still for that read-out and setting: then `CCC(C)(C)CC(C)c1ccccc1NC(=O)c1ccccc1Br` (stereo not shown) [Example 13, (2-bromophenyl)-N-[2-(1,3,3-trimethylpentyl)phenyl]carboxamide], with 4.63.
Regarding `CCCCc1ccccc1NC(=O)c1ccccc1I` [No.14.3(p. 42)], the pest or weed control at 500 ppm (in the series on Sphaerotheca fuliginea [2]; with Alternaria solani; in series [3]) was 0% throughout.
As for `CCC(C)c1ccccc1NC(=O)c1ccccc1I` (stereo not shown) [No.14.4(p. 42)], the pest or weed control at 500 ppm was 10% in the series on Sphaerotheca fuliginea [2], 10% in the series with Alternaria solani and 20% in series [3].
As to `CCCCCCc1ccccc1NC(=O)c1ccccc1I` [No.14.9(p. 42)], the pest or weed control at 500 ppm (in the series on Sphaerotheca fuliginea [2]; in the series on Alternaria solani; in series [3]) was 0% each time.
As for `CCCCc1ccccc1NC(=O)c1ccccc1C(F)(F)F` [No. 6.3(p. 24)], the pest or weed control at 500 ppm in the series with Sphaerotheca fuliginea [2] was 10%; with Alternaria solani it was 0%; in series [3] it was 10%.
Take `CCC(C)c1ccccc1NC(=O)c1ccccc1C(F)(F)F` (stereo not shown) [No. 6.4(p. 24)]: the figures for the pest or weed control at 500 ppm (in the series with Sphaerotheca fuliginea [2]; in the series on Alternaria solani; in series [3]) were 30%, 30% and 0%, respectively.
In the case of `CCCCCCc1ccccc1NC(=O)c1ccccc1C(F)(F)F` [No. 6.9(p. 24)], the pest or weed control at 500 ppm (in the series on Sphaerotheca fuliginea [2]; with Alternaria solani; in series [3]) was 0% each time.
In the series with Sphaerotheca fuliginea [4], `CC(C)CC(C)c1ccccc1NC(=O)c1ccccc1C(F)(F)F` (stereo not shown) [drawing 10] yielded an Efficacy in % of 100%.
On the same count and under the same terms, then `CC(C)CC(C)c1ccccc1NC(=O)c1ccccc1I` (stereo not shown) [drawing 11], with 100%.
In the case of `CC(C)CC(C)c1ccccc1NC(=O)c1ccccc1C(F)(F)F` (stereo not shown) [drawing 12], the Efficacy in % in the series on Venturia inaequalis is listed as 100%.
On the same count and under the same terms, then `CC(C)CC(C)c1ccccc1NC(=O)c1ccccc1I` (stereo not shown) [drawing 13], with 100%.
For the compound `CC(C)CC(C)c1ccccc1NC(=O)c1ccccc1C(F)(F)F` (stereo not shown) [drawing 20], in the series with Puccinia recondita, the pest or weed control at 500 g/ha worked out at 100%.
The same measure, in the same setting: as for `CC(C)CC(C)c1ccccc1NC(=O)c1ccccc1I` (stereo not shown) [drawing 21], the figure is 100%.
On to `CC(C)CC(C)c1ccccc1NC(=O)c1ccccc1Br` (stereo not shown) [drawing 22], for which the pest or weed control at 500 g/ha with Puccinia recondita amounted to 100%.
Consider `CC(C)CC(C)c1ccccc1NC(=O)c1ccccc1Cl` (stereo not shown) [drawing 23], for which, in the series with Puccinia recondita, the pest or weed control at 500 g/ha worked out at 100%.
As for `CC(CC(C)(C)C)c1ccccc1NC(=O)c1ccccc1Br` (stereo not shown) [drawing 24], the pest or weed control at 500 g/ha with Puccinia recondita came to 100%.
On the same count and under the same terms, as for `CC(CC(C)(C)C)c1ccccc1NC(=O)c1ccccc1Cl` (stereo not shown) [drawing 25], the figure is 100%; as for `CCC(C)(C)CC(C)c1ccccc1NC(=O)c1ccccc1C(F)(F)F` (stereo not shown) [drawing 26], 100%; as for `CC(CC(C)(C)C)c1ccccc1NC(=O)c1ccccc1C(F)(F)F` (stereo not shown) [drawing 27], 100%.
With `CC(CC(C)(C)C)c1ccccc1NC(=O)c1ccccc1I` (stereo not shown) [drawing 28], in the series with Puccinia recondita, the pest or weed control at 500 g/ha is 100%.
